Assays:
[1] = molecular target: T1, Steroid hormone receptor ERR2 (Homo sapiens, UniProt O95718); experiment: Binding affinity to GST-tagged ERRbeta LBD (unknown origin) using fluorescein PGC1alpha as coactivator incubated for 1 hr by LanthaScreen TR-FRET co-regulator assay
T1 sequence (O95718 whole entry): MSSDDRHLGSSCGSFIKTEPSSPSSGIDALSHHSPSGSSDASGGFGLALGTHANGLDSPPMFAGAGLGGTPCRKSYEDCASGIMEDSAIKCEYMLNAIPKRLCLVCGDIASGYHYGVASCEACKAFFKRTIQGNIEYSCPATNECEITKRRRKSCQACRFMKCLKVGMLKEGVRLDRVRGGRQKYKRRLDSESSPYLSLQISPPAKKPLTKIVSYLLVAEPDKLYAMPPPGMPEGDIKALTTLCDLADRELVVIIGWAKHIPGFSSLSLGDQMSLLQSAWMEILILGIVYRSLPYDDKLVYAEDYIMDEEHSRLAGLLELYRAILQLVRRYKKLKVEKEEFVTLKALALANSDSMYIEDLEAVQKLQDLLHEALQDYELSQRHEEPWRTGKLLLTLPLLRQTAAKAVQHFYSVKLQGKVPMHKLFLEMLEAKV

CYP3A4 = CYP3A4 (Homo sapiens, UniProt P08684); experiment: Inhibition of CYP3A4 in human liver microsomes assessed as reduction in midazolam 1-hydroxylase activity at 10 uM preincubated for 5 mins followed by addition of NADPH-regenerating system and measured after 15 mins by LC-MS/MS analysis relative to control; format: ADME; conditions: probe midazolam (1-hydroxylase activity), time 20 min
Chain of CYP3A4 (P08684 whole entry): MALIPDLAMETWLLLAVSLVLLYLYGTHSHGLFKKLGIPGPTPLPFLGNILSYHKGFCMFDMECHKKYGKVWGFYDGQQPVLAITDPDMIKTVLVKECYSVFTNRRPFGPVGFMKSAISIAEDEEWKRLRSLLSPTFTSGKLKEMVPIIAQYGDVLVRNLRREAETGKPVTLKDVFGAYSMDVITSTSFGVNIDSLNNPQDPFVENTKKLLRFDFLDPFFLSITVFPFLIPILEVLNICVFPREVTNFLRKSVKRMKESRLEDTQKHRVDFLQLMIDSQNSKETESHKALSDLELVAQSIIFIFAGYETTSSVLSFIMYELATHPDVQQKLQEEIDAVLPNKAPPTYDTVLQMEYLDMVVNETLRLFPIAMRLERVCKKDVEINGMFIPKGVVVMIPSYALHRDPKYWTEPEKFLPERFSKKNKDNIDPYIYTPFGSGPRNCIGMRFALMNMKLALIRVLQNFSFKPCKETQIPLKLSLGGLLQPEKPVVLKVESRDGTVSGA

CYP2D6 = CYP2D6 (Homo sapiens, UniProt P10635); experiment: Inhibition of CYP2D6 in human liver microsomes assessed as reduction in dextromethorphan O-demethylase activity at 10 uM preincubated for 5 mins followed by addition of NADPH-regenerating system and measured after 15 mins by LC-MS/MS analysis relative to control; format: ADME; conditions: probe dextromethorphan (O-demethylase activity), time 20 min
Chain of CYP2D6 (P10635 whole entry): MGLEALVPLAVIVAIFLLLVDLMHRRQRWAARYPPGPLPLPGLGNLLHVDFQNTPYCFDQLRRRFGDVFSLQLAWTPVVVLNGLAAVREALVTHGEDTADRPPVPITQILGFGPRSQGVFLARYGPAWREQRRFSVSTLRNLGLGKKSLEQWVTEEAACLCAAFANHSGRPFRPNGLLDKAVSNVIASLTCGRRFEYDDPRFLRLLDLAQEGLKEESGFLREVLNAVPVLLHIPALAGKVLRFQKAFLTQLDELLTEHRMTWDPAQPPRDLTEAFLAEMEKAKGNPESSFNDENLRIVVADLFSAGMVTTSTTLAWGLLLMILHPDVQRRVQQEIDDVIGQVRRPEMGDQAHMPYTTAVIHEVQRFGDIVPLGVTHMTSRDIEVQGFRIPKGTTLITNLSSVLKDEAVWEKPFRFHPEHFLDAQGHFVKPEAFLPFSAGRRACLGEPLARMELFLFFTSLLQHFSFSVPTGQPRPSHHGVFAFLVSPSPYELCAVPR

CYP1A2 = molecular target: T2, CYP1A2 (Homo sapiens, UniProt P05177); experiment: Inhibition of CYP1A2 in human liver microsomes assessed as reduction in phenacetin O-deethylase activity at 10 uM preincubated for 5 mins followed by addition of NADPH-regenerating system and measured after 15 mins by LC-MS/MS analysis relative to control; format: ADME; conditions: probe phenacetin (O-deethylase activity), time 20 min
T2 sequence (P05177 whole entry): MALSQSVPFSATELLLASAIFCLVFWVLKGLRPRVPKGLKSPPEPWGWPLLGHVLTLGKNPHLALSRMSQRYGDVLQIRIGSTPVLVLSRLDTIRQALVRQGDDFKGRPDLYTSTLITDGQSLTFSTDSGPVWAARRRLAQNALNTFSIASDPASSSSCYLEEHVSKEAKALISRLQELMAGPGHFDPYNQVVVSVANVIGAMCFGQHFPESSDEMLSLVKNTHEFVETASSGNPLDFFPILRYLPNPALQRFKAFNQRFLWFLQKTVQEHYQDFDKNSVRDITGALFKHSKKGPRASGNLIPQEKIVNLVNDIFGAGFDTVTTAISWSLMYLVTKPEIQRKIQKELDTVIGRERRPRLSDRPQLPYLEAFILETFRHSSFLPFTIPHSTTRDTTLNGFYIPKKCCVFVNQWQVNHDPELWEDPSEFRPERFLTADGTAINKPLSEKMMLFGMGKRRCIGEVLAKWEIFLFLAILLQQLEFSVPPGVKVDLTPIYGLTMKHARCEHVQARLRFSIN

CYP2C9 = CYP2C9 (Homo sapiens, UniProt P11712); experiment: Inhibition of CYP2C9 in human liver microsomes assessed as reduction in tolbutamide 4-hydroxylase activity at 10 uM preincubated for 5 mins followed by addition of NADPH-regenerating system and measured after 15 mins by LC-MS/MS analysis relative to control; format: ADME; conditions: probe tolbutamide (4-hydroxylase activity), time 20 min
Chain of CYP2C9 (P11712 whole entry): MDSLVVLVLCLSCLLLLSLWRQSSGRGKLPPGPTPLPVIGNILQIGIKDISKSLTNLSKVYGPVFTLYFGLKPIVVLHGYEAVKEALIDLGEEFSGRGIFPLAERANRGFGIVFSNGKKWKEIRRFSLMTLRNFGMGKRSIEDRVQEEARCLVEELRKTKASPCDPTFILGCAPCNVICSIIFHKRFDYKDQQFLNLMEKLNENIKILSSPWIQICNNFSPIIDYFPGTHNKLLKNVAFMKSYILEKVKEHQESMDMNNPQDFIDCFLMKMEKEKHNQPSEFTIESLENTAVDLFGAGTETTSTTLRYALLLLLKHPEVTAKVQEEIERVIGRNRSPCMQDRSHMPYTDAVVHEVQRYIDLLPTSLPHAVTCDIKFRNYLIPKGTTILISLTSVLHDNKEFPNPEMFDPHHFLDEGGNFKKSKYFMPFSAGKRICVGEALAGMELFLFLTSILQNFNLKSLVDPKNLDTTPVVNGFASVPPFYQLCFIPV

CYP2C19 = CYP2C19 (Homo sapiens, UniProt P33261); experiment: Inhibition of CYP2C19 in human liver microsomes assessed as reduction in S-mephenytoin 4-hydroxylase activity at 10 uM preincubated for 5 mins followed by addition of NADPH-regenerating system and measured after 15 mins by LC-MS/MS analysis relative to control; format: ADME; conditions: probe S-mephenytoin (4-hydroxylase activity), time 20 min
Chain of CYP2C19 (P33261 whole entry): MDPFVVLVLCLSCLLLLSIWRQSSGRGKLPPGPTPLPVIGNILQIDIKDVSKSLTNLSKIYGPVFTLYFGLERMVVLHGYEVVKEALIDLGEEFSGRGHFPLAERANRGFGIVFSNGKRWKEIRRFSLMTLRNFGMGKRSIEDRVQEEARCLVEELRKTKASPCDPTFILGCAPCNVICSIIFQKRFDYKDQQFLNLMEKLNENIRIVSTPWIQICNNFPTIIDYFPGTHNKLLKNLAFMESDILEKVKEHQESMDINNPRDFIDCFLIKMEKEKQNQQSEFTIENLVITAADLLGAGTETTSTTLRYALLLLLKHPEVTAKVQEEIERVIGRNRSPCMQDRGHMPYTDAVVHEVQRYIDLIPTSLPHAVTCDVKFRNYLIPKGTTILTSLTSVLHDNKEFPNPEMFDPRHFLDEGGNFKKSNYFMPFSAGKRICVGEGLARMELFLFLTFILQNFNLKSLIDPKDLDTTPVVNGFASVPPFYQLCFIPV

[2] = Effective permeability of compound at 10 uM in PBS buffer at pH 7.4 after 5 hrs by LC-MS/MS analysis based PAMPA method; format: ADME; conditions: read-out: Peff
[3] = Metabolic stability in rat liver microsome assessed as parent compound remaining at 1 uM incubated for 30 mins in presence of NADPH generating system by LC-MS/MS analysis; format: ADME; conditions: liver microsomes, read-out: Stabilty
Estrogen receptor = molecular target: T3, Estrogen receptor (Homo sapiens, UniProt P03372); experiment: Binding affinity to GST-tagged ERalpha LBD (unknown origin) using fluorescein PGC1alpha as coactivator incubated for 1 hr by LanthaScreen TR-FRET co-regulator assay
T3 sequence (P03372 whole entry): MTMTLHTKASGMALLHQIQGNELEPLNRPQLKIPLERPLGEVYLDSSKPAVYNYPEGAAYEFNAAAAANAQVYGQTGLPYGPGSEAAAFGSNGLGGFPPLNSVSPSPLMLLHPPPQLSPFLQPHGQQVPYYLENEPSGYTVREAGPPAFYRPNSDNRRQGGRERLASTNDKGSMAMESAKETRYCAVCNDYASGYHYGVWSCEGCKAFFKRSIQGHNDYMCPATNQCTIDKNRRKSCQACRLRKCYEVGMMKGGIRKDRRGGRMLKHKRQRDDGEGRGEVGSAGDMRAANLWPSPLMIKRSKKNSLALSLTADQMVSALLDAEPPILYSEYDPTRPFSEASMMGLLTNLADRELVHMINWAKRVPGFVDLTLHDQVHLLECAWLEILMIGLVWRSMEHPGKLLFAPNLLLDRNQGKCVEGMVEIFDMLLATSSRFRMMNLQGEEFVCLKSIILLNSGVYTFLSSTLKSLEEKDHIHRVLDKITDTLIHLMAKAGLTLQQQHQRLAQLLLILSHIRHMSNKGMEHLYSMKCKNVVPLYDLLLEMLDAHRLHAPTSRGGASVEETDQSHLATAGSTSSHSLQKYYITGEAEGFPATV

[4] = Metabolic stability in human liver microsome assessed as parent compound remaining at 1 uM incubated for 30 mins in presence of NADPH generating system by LC-MS/MS analysis; format: ADME; conditions: liver microsomes, read-out: Stabilty
[5] = molecular target: T4, Steroid hormone receptor ERR1 (Homo sapiens, UniProt P11474); experiment: Binding affinity to GST-tagged ERRalpha LBD (unknown origin) using fluorescein PGC1alpha as coactivator incubated for 1 hr by LanthaScreen TR-FRET co-regulator assay
T4 sequence (P11474 whole entry): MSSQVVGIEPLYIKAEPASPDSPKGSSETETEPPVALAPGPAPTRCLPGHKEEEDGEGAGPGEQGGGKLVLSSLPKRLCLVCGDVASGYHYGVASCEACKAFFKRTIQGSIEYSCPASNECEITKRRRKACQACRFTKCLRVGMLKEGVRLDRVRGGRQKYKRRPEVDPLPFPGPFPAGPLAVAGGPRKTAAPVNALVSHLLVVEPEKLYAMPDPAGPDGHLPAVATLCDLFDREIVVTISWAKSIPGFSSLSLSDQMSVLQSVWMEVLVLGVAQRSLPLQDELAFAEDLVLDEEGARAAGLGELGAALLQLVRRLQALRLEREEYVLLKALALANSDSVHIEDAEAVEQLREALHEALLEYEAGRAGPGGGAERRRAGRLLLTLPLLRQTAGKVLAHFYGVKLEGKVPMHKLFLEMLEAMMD

[6] = molecular target: Voltage-gated inwardly rectifying potassium channel KCNH2 (Homo sapiens, UniProt Q12809); experiment: (§1) Inhibition of human ERG measured after 4 hrs by fluorescence polarization assay
Chain of Voltage-gated inwardly rectifying potassium channel KCNH2 (Q12809 whole entry): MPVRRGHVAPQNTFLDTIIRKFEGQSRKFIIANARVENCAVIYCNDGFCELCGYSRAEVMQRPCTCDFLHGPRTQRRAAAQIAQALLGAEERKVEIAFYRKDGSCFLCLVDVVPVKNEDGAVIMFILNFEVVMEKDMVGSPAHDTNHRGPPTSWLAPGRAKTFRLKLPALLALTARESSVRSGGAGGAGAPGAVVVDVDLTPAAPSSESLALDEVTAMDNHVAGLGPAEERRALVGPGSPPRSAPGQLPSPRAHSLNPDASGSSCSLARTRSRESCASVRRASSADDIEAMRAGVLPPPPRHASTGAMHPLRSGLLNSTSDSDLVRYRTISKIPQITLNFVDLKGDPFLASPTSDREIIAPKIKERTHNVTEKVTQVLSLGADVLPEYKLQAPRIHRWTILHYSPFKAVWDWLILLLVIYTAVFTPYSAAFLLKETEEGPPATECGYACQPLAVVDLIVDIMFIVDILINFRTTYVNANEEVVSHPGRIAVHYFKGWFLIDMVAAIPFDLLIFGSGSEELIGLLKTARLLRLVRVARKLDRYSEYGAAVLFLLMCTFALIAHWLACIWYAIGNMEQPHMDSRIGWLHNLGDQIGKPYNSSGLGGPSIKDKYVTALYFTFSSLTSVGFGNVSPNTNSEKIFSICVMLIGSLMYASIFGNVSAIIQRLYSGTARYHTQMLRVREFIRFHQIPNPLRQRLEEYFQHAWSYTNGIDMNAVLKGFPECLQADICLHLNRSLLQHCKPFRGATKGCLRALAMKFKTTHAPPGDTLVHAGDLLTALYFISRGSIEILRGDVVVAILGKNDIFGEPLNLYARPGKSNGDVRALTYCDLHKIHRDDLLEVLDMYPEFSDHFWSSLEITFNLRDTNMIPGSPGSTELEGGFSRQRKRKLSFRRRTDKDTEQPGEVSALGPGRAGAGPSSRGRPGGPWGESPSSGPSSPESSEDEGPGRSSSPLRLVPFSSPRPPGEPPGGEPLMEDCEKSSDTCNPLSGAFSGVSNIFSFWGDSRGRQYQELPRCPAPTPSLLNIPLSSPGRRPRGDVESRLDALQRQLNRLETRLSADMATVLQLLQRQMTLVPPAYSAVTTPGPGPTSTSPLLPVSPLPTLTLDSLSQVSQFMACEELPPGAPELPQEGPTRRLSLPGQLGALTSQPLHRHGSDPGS

[7] = molecular target: T5, Estrogen-related receptor gamma (Homo sapiens, UniProt P62508)
T5 sequence (P62508 whole entry): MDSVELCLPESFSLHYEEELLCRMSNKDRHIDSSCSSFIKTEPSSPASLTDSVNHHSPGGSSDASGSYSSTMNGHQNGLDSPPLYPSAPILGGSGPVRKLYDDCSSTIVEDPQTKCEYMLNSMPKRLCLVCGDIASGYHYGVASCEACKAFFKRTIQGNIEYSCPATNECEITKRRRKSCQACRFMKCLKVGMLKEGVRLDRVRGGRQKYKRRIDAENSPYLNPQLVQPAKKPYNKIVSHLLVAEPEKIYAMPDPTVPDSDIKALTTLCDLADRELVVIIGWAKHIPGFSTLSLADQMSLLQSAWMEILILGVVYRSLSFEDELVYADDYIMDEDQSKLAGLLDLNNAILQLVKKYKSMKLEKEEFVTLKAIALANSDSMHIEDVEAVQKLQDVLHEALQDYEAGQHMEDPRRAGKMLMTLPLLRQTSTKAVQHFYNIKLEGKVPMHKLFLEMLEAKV

hERG (KCNH2) = hERG (KCNH2) (Homo sapiens, UniProt Q12809); experiment: as §1; conditions: human
Chain of hERG (KCNH2) (Q12809 whole entry): as the sequence (Q12809 whole entry) above

SMILES	IC50 [1]	inhibition at 0.25 h, 10 µM (CYP3A4)	inhibition at 0.25 h, 10 µM (CYP2D6)	inhibition at 0.25 h, 10 µM (CYP1A2)	inhibition at 0.25 h, 10 µM (CYP2C9)	inhibition at 0.25 h, 10 µM (CYP2C19)	Papp at 5 h, 10 µM [2]	remaining at 0.5 h, 1 µM [3]	IC50 (Estrogen receptor)	remaining at 0.5 h, 1 µM [4]	IC50 [5]	IC50 [6]	IC50 [7]	IC50 at 4 h (hERG (KCNH2))
CN1CCCC1CCOc1ccc(/C(=C(/CCCO)c2ccccc2)c2ccc(Br)cc2)cc1.Cl (stereo unspecified)	8.88 µM	9.8%	0%	0%	3%	10.6%	0.21 ×10⁻⁶ cm/s	59.9%	2.97 µM	67.3%	5.14 µM	1.7 µM	0.296 µM	–
CN1CCCC1CCOc1ccc(/C(=C(/CCCO)c2ccccc2)c2ccc(O)cc2)cc1.Cl (stereo unspecified)	6.01 µM	16.3%	18.3%	2.1%	24.6%	18.2%	0.01 ×10⁻⁶ cm/s	22.5%	–	37.3%	> 10 µM	–	0.02 µM	–
CN1CCC[C@@H]1COc1ccc(/C(=C(/CCCO)c2ccccc2)c2ccc(O)cc2)cc1.Cl	> 10 µM	20.6%	6.4%	1.9%	13.3%	17.4%	0.7 ×10⁻⁶ cm/s	27.7%	3.76 µM	29%	> 10 µM	–	–	> 30 µM

Reference: ChEMBL document CHEMBL4680094, “Insights of a Lead Optimization Study and Biological Evaluation of Novel 4-Hydroxytamoxifen Analogs as Estrogen-Related Receptor γ (ERRγ) Inverse Agonists” (J Med Chem, 2016)
